Measurements reported in patent US20060159777A1, “Aqueous acaricidal solution” (SOLVAY (SOCIETE ANONYME), priority 2002, published 2006).
Read-outs that look alike come from different tables or passages of the source.

Legend:
[1] = test system: dermatophagoides pteronyssinus
Protocol: Acarids (dermatophagoides pteronyssinus) originating from a laboratory strain raised on a substrate consisting of a 50/50 (mass/mass) mixture of wheatgerm and of brewer's yeast as flakes calibrated by sieving (fragments of less than 1 mm in size) were used. The temperature was between 23 and 25° C. and the relative humidity was maintained at 75% by placing in the presence of a saturated aqueous ammonium sulphate solution ([NH4)2SO4]); the strain was conserved in the dark.
Pieces of standard cotton wool (150 g/m^2) were pre-infested with approximately 200 acarids of all stages.
The pieces of cotton wool were then treated by sprinkling with an aqueous solution obtained by mixing 10, 30 or 50 g/l of sodium bicarbonate into water.
Two rates of application of the solution were used: 30 and 50 ml/m^2.
The sodium bicarbonate solution was sprayed and projected evenly and precisely over the cotton wool surfaces.
The mortality of the acarids was noted after 15 min, 1 h, 2 h, 4 h and 24 h.
A control batch of acarids was monitored in parallel so as to determine the natural mortality of the acarids subjected to spraying with the same volume of water.
Each experimental series was repeated three times and the means of the mortality results obtained were taken.

[2] = test system: dermatophagoides pteronyssinus; conditions: approximately 200 acarids deposited
Protocol: The procedure was carried out as in example 1, except that the acaricidal aqueous solution was not applied by sprinkling, but the pieces of standard cotton wool (150 g/m^2) were immersed in baths of sodium bicarbonate solution.
Three sodium bicarbonate concentrations were used: 10, 30 and 50 g/l.
After drying of the textiles, approximately 200 acarids of all stages were deposited thereon and the acarid mortality was measured as a function of time.
The acarid mortality was noted after 3 and 6 weeks.
Each experimental series was also repeated three times and the means of the mortality results obtained were taken.

Q: How did the “% mortality” value ([1]; 10 g bicarb/1, 30 ml/m^2 (0.3 g bicarb/m^2), contact time 15 minutes) turn out when `O=C([O-])O.[Na+]` [Sodium bicarbonate, sodium bicarbonate] was run?
A: 0.0%

Q: What about the “% mortality” value ([1]; 10 g bicarb/1, 30 ml/m^2 (0.3 g bicarb/m^2), contact time 1 hour) of the same molecule?
A: 0.0%

Q: And the “% mortality” value ([1]; 10 g bicarb/1, 30 ml/m^2 (0.3 g bicarb/m^2), contact time 2 hours)?
A: 0.2%

Q: What about the “% mortality” value ([1]; 10 g bicarb/1, 30 ml/m^2 (0.3 g bicarb/m^2), contact time 4 hours) of the same molecule?
A: 0.5%

Q: And the “% mortality” value ([1]; 10 g bicarb/1, 30 ml/m^2 (0.3 g bicarb/m^2), contact time 24 hours)?
A: 18.5%

Q: What about the “% mortality” value ([1]; 10 g bicarb/1, 50 ml/m^2 (0.5 g bicarb/m^2), contact time 15 minutes) of the same molecule?
A: 0.0%

Q: And the “% mortality” value ([1]; 10 g bicarb/1, 50 ml/m^2 (0.5 g bicarb/m^2), contact time 1 hour)?
A: 0.0%

Q: What about the “% mortality” value ([1]; 10 g bicarb/1, 50 ml/m^2 (0.5 g bicarb/m^2), contact time 2 hours) of the same molecule?
A: 2.1%

Q: And the “% mortality” value ([1]; 10 g bicarb/1, 50 ml/m^2 (0.5 g bicarb/m^2), contact time 4 hours)?
A: 20.9%

Q: What about the “% mortality” value ([1]; 10 g bicarb/1, 50 ml/m^2 (0.5 g bicarb/m^2), contact time 24 hours) of the same molecule?
A: 35.8%

Q: And the “% mortality” value ([1]; 30 g bicarb/1, 30 ml/m^2 (0.9 g bicarb/m^2), contact time 15 minutes)?
A: 0.0%

Q: And the “% mortality” value ([1]; 30 g bicarb/1, 30 ml/m^2 (0.9 g bicarb/m^2), contact time 1 hour)?
A: 0.0%

Q: And the “% mortality” value ([1]; 30 g bicarb/1, 30 ml/m^2 (0.9 g bicarb/m^2), contact time 2 hours)?
A: 0.0%

Q: What about the “% mortality” value ([1]; 30 g bicarb/1, 30 ml/m^2 (0.9 g bicarb/m^2), contact time 4 hours) of the same molecule?
A: 0.7%

Q: And the “% mortality” value ([1]; 30 g bicarb/1, 30 ml/m^2 (0.9 g bicarb/m^2), contact time 24 hours)?
A: 19.7%

Q: And the “% mortality” value ([1]; 30 g bicarb/1, 50 ml/m^2 (1.5 g bicarb/m^2), contact time 15 minutes)?
A: 0.0%

Q: And the “% mortality” value ([1]; 30 g bicarb/1, 50 ml/m^2 (1.5 g bicarb/m^2), contact time 1 hour)?
A: 0.0%

Q: What about the “% mortality” value ([1]; 30 g bicarb/1, 50 ml/m^2 (1.5 g bicarb/m^2), contact time 2 hours) of the same molecule?
A: 3.4%

Q: And the “% mortality” value ([1]; 30 g bicarb/1, 50 ml/m^2 (1.5 g bicarb/m^2), contact time 4 hours)?
A: 25.1%

Q: And the “% mortality” value ([1]; 30 g bicarb/1, 50 ml/m^2 (1.5 g bicarb/m^2), contact time 24 hours)?
A: 39.9%

Q: And the “% mortality” value ([1]; 50 g bicarb/1, 30 ml/m^2 (1.5 g bicarb/m^2), contact time 15 minutes)?
A: 0.0%

Q: What about the “% mortality” value ([1]; 50 g bicarb/1, 30 ml/m^2 (1.5 g bicarb/m^2), contact time 1 hour) of the same molecule?
A: 0.0%

Q: And the “% mortality” value ([1]; 50 g bicarb/1, 30 ml/m^2 (1.5 g bicarb/m^2), contact time 2 hours)?
A: 0.0%

Q: And the “% mortality” value ([1]; 50 g bicarb/1, 30 ml/m^2 (1.5 g bicarb/m^2), contact time 4 hours)?
A: 5.2%

Q: And the “% mortality” value ([1]; 50 g bicarb/1, 30 ml/m^2 (1.5 g bicarb/m^2), contact time 24 hours)?
A: 88.0%

Q: What about the “% mortality” value ([1]; 50 g bicarb/1, 50 ml/m^2 (2.5 g bicarb/m^2), contact time 15 minutes) of the same molecule?
A: 0.0%

Q: And the “% mortality” value ([1]; 50 g bicarb/1, 50 ml/m^2 (2.5 g bicarb/m^2), contact time 1 hour)?
A: 0.0%

Q: What about the “% mortality” value ([1]; 50 g bicarb/1, 50 ml/m^2 (2.5 g bicarb/m^2), contact time 2 hours) of the same molecule?
A: 2.8%

Q: What about the “% mortality” value ([1]; 50 g bicarb/1, 50 ml/m^2 (2.5 g bicarb/m^2), contact time 4 hours) of the same molecule?
A: 58.9%

Q: What about the “% mortality” value ([1]; 50 g bicarb/1, 50 ml/m^2 (2.5 g bicarb/m^2), contact time 24 hours) of the same molecule?
A: 95.7%

Q: What about the Survivors ([2]; immersion bath 10 g/l, after 3 weeks) of the same molecule?
A: 212.8

Q: What about the Survivors ([2]; immersion bath 10 g/l, after 6 weeks) of the same molecule?
A: 818.3

Q: And the Survivors ([2]; immersion bath 30 g/l, after 3 weeks)?
A: 153.5

Q: And the Survivors ([2]; immersion bath 30 g/l, after 6 weeks)?
A: 245.0

Q: What about the Survivors ([2]; immersion bath 50 g/l, after 3 weeks) of the same molecule?
A: 53.5

Q: And the Survivors ([2]; immersion bath 50 g/l, after 6 weeks)?
A: 143.0
